Measurements from ChEMBL document CHEMBL1201862, “PubChem BioAssay data set” (2004).
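Dose response: 5 concentrations. Exposure: 48 h. Format: 96-well plates. Endpoint: linear interpolation; highest concentration if not reached. The concentration for 50% growth inhibition is given as GI50.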 Active and inactive are the calls of the source. Cut-off read from the data, not from the text of the source: active = GI50 up to about 1.1 µM and inactive = higher.

Experiments:
Assay in all cases: NCI anticancer screen, dose series, 48 h
[1] = tested on: NCI-H23
[2] = tested on: OVCAR-4
[3] = tested on: MDA-MB-231
[4] = tested on: SW-620
[5] = tested on: SK-OV-3
[6] = tested on: M14
[7] = tested on: SF-295
[8] = tested on: MCF7
[9] = tested on: SN12C
[10] = tested on: OVCAR-3
[11] = tested on: SK-MEL-28
[12] = tested on: HT-29
[13] = tested on: NCI-H522
[14] = tested on: UACC-62
[15] = tested on: SF-539
[16] = tested on: HCT-116
[17] = tested on: RPMI-8226
[18] = tested on: PC-3
[19] = tested on: U-251
[20] = tested on: Malme-3M

| Compound | GI50 [1] | GI50 [2] | GI50 [3] | GI50 [4] | GI50 [5] | GI50 [6] | GI50 [7] | GI50 [8] | GI50 [9] | GI50 [10] | GI50 [11] | GI50 [12] | GI50 [13] | GI50 [14] | GI50 [15] | GI50 [16] | GI50 [17] | GI50 [18] | GI50 [19] | GI50 [20] |
| --- | --- | --- | --- | --- | --- | --- | --- | --- | --- | --- | --- | --- | --- | --- | --- | --- | --- | --- | --- | --- |
| COc1ccc2c(c1)N(CCC1CCCCN1C)c1ccccc1S2 (stereo not given) [OXYRIDAZINE] | 17.1 µM (inactive) | 11.1 µM (inactive) | 11 µM (inactive) | 14.7 µM (inactive) | 16.3 µM (inactive) | 3.13 µM (inactive) | 16 µM (inactive) | 11.4 µM (inactive) | 13.4 µM (inactive) | 15.6 µM (inactive) | 3.58 µM (inactive) | 5.12 µM (inactive) | 13.1 µM (inactive) | 12.6 µM (inactive) | 23.1 µM (inactive) | 12.8 µM (inactive) | 12.4 µM (inactive) | 10.8 µM (inactive) | 11.3 µM (inactive) | 18.2 µM (inactive) |
| CN(C)c1ccc(/C=c2/c3ccccc3n3c2cc(NC(=O)NCCC[N+](C)(C)C)[n+]3C)cc1 | > 100 µM (inactive) | 22.2 µM (inactive) | > 100 µM (inactive) | > 100 µM (inactive) | > 100 µM (inactive) | 72.8 µM (inactive) | 53.7 µM (inactive) | 46.6 µM (inactive) | 0.432 µM (active) | 45.4 µM (inactive) | > 100 µM (inactive) | > 100 µM (inactive) | 29.4 µM (inactive) | > 100 µM (inactive) | 53.1 µM (inactive) | > 100 µM (inactive) | 22.9 µM (inactive) | > 100 µM (inactive) | 50 µM (inactive) | > 100 µM (inactive) |
| CCCCN1C(=O)N(c2ccc(OCC)cc2)C2N(CCCC)C1C(C)(C)C2(C)C (stereo not given) | 24.8 µM (inactive) | 37.8 µM (inactive) | 41.5 µM (inactive) | 32.6 µM (inactive) | 19.2 µM (inactive) | 25.1 µM (inactive) | 47.4 µM (inactive) | 15.3 µM (inactive) | 30.3 µM (inactive) | 15.7 µM (inactive) | 32.1 µM (inactive) | 38.5 µM (inactive) | 44.1 µM (inactive) | 16.9 µM (inactive) | 16.7 µM (inactive) | 31.6 µM (inactive) | 14.9 µM (inactive) | 23.2 µM (inactive) | 37 µM (inactive) | 24.2 µM (inactive) |
| CC(=O)C(CN1CCCCC1)C(c1ccccc1)c1c(O)c2ccccc2oc1=O (stereo not given) | > 100 µM (inactive) | > 100 µM (inactive) | > 100 µM (inactive) | > 100 µM (inactive) | > 100 µM (inactive) | > 100 µM (inactive) | > 100 µM (inactive) | > 100 µM (inactive) | > 100 µM (inactive) | > 100 µM (inactive) | > 100 µM (inactive) | > 100 µM (inactive) | > 100 µM (inactive) | > 100 µM (inactive) | > 100 µM (inactive) | > 100 µM (inactive) | > 100 µM (inactive) | > 100 µM (inactive) | > 100 µM (inactive) | > 100 µM (inactive) |
| CC(=O)O[C@H]1C(=O)[C@@]2(C)[C@H]([C@H](OC(=O)c3ccccc3)[C@@]3(O)C[C@H](O)C(C)=C1C3(C)C)[C@]1(OC(C)=O)CO[C@@H]1C[C@@H]2O | 39.1 µM (inactive) | > 100 µM (inactive) | 45.1 µM (inactive) | 14.6 µM (inactive) | 22.7 µM (inactive) | 28.6 µM (inactive) | 37.5 µM (inactive) | 30.4 µM (inactive) | 49.4 µM (inactive) | 22.2 µM (inactive) | 64.9 µM (inactive) | 23.3 µM (inactive) | 17 µM (inactive) | 36 µM (inactive) | 32.1 µM (inactive) | 30.5 µM (inactive) | 13.7 µM (inactive) | 28 µM (inactive) | 45.9 µM (inactive) | > 100 µM (inactive) |
